Legend:
mouse IgG (IgG-AF647) = assay: Cellular uptake of IgG-AF647 in HUH7 cells; assay type: cell-based; details: HUH7 cells incubated with inhibitor
Experimental: To assess whether a bifunctional molecule comprising ASGPR ligands could indeed shuttle cargo to lysosomes in hepatocytes, an assay schematically illustrated in FIG. 21 was employed. A bifunctional molecule comprising an anti-mouse IgG antibody conjugated to a poly(GalNAc-co-Ala) polymer was tested to determine whether the bifunctional molecule could shuttle extracellular fluorescent-labeled mouse IgG (IgG-AF647) into the intracellular compartment of hepatocytes. […] HEPG2 cells (hepatocellular carcinoma cell line) were incubated with 50 nM IgG-AF647 and 25 nM of anti-mouse conjugates for 1 hour. Cellular uptake was analyzed by flow cytometry. As shown by the bar graph, an approximately 8-fold increase in cell fluorescence was observed using the GalNAc-containing conjugate while the M6Pn-containing conjugate induced 2-fold increase over background.
Shown in FIG. 22 are results from the assay described for FIG. 21 but in HUH7 cells (another hepatocellular carcinoma cell line). […] In addition, controls were included in which the cells were incubated with M6PR or ASGPR inhibitors (monomeric M6P (mM6P) and monomeric GalNAc (mGalNAc), respectively).

[1] = cited from earlier work
[2] = target: cation independent M6PR (CIM6PR) (Homo sapiens, UniProt P11717); details: relative to mannose-6-phosphate glycans; cited from earlier work
cation independent M6PR (CIM6PR), sequence (P11717 41-2491): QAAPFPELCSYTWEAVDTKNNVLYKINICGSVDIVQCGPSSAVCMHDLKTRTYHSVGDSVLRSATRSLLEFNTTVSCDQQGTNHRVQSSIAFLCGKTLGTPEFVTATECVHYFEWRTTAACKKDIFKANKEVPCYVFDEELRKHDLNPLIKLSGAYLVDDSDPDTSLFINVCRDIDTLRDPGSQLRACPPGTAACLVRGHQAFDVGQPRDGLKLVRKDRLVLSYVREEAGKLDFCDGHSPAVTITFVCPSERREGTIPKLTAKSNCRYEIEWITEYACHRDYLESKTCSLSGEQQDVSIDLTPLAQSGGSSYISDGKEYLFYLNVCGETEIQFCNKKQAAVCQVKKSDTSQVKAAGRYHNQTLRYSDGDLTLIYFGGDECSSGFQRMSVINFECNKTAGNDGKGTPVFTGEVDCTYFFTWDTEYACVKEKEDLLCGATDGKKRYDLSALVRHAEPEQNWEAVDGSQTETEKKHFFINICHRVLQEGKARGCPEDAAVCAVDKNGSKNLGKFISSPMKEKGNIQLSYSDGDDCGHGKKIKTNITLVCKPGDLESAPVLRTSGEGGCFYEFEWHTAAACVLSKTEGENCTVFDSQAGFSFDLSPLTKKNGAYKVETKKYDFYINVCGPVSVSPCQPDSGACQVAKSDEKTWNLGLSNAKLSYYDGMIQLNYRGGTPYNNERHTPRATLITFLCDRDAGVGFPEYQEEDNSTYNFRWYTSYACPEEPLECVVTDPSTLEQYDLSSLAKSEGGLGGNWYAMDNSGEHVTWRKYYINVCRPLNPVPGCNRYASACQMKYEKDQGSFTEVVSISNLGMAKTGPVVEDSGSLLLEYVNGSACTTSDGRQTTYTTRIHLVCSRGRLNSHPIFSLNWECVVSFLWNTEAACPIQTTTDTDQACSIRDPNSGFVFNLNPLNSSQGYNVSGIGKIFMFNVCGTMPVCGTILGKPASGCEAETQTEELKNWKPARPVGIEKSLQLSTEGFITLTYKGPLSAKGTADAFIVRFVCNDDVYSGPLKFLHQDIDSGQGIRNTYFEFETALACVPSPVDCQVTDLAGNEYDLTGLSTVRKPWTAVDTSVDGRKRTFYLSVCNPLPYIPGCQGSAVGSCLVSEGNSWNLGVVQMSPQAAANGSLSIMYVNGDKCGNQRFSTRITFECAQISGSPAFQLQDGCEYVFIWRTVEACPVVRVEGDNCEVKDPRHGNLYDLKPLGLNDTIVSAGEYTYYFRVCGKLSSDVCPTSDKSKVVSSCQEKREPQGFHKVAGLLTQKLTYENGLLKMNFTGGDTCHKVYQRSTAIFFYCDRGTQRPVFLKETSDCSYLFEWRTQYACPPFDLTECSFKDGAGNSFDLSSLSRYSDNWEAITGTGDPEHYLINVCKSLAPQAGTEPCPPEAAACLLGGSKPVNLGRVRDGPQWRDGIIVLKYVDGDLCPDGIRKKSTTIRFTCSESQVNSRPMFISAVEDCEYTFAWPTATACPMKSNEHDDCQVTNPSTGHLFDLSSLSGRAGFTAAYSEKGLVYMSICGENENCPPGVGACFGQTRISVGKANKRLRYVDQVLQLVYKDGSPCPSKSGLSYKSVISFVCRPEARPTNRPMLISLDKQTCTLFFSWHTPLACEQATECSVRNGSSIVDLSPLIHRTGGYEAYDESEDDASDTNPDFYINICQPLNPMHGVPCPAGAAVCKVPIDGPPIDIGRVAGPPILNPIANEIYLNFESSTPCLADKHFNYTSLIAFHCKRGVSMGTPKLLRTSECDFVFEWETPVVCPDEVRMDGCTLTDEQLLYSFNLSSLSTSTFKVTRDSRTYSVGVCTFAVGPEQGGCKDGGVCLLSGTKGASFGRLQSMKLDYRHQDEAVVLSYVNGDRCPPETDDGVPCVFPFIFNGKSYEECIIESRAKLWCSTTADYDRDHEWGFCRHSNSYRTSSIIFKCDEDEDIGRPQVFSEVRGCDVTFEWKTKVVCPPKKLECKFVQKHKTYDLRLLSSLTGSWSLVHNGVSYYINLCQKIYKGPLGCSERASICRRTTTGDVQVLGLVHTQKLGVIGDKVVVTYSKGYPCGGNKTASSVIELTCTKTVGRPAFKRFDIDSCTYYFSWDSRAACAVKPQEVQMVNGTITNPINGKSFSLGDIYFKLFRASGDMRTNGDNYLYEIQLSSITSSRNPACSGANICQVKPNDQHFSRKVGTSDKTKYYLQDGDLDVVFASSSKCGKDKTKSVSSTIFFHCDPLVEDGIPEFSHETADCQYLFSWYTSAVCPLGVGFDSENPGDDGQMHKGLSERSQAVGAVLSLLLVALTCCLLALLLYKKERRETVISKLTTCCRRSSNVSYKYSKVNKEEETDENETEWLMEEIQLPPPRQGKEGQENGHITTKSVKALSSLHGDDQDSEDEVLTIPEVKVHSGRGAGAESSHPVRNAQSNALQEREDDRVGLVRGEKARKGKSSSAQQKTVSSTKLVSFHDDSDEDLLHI

Molecule: CC(=O)N[C@H]1C(O)O[C@H](CO)[C@H](O)[C@@H]1O (mixture of isomers) [mGalNAc, monomeric GalNAc]
- uptake of IgG-AF647 with conjugates in presence of M6PR or ASGPR inhibitor (mouse IgG (IgG-AF647)): Uptake was reduced

Molecule: C=CC(=O)OC[C@@H](O)[C@@H](O)[C@H](O)[C@H](O)C=O [Mannose-6-acrylate glycans, Mannose-6-acrylate]
- serum stability compared to mannose-6-phosphate glycans [1]: better serum stability
- relative binding affinity for the CIM6PR, compared to mannose-6-phosphate glycans [2]: 0.7

Molecule: O=P(O)(O)OC[C@H]1OC(O)[C@@H](O)[C@@H](O)[C@@H]1O (some centres unmarked) [mM6P, monomeric M6P]
- uptake of IgG-AF647 with conjugates in presence of M6PR or ASGPR inhibitor (mouse IgG (IgG-AF647)): Uptake was reduced

Molecule: Mannose-6-carboxylate [Mannose-6-carboxylate glycans]
- relative binding affinity for the CIM6PR, compared to mannose-6-phosphate glycans [2]: 0.3

— US11787865B2, “Bifunctional molecules for lysosomal targeting and related compositions and methods” (The Board of Trustees of the Leland Stanford Junior …, priority 2018, dated 2023)
